{"source": "PubChem BioAssay AID330", "about": "(DTP/NCI, 2004)", "test_system": "P388 leukemia ip, CD2F1 mice, survival T/C", "assay": "NCI In Vivo Anticancer Drug Screen. Data for tumor model P388 Leukemia (intraperitoneal) in CD2F1 (CDF1) mice", "conditions": "endpoint: median survival time, higher = longer survival", "procedure,_shortened": "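Mice carrying the transplanted tumor received test compound or vehicle. Survival was recorded in each group, and the value is the treated-group measurement divided by that of the vehicle-treated control group.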", "key": {"[1]": {"conditions": "dose: 2.0 mg/kg/injection, schedule: Q01DX009 (ip), vehicle: Klucel (hydroxypropylcellulose) (HPC)"}, "[2]": {"conditions": "dose: 4.0 mg/kg/injection, schedule: Q01DX009 (ip), vehicle: Klucel (hydroxypropylcellulose) (HPC)"}, "[3]": {"conditions": "dose: 8.0 mg/kg/injection, schedule: Q01DX009 (ip), vehicle: Klucel (hydroxypropylcellulose) (HPC)"}, "[4]": {"conditions": "dose: 12.5 mg/kg/injection, schedule: Q01DX005 (ip), vehicle: saline with Tween-80"}, "[5]": {"conditions": "dose: 50.0 mg/kg/injection, schedule: Q01DX005 (ip), vehicle: Klucel (hydroxypropylcellulose) (HPC)"}, "[6]": {"conditions": "dose: 100.0 mg/kg/injection, schedule: Q01DX005 (ip), vehicle: Klucel (hydroxypropylcellulose) (HPC)"}, "[7]": {"conditions": "dose: 200.0 mg/kg/injection, schedule: Q01DX005 (ip), vehicle: Klucel (hydroxypropylcellulose) (HPC)"}}, "note": "Values joined by “and” are separate entries in the source; they are usually repeats but may differ in a detail not shown here. Equal values may be shown once. Inconclusive results and toxic doses are left out.", "data": [{"smiles": "CC(C)c1oc(=O)cc2c1C(O)C1OC(=O)C3(C)C(O)C4OC4C2(C)C13", "note": "(stereo not given)", "values": [{"measurement": "T/C", "setting": "dose: 15.0 mg/kg/injection, schedule: Q01DX005 (ip), vehicle: Klucel (hydroxypropylcellulose) (HPC)", "result": "103 % of control and 105 % of control"}, {"measurement": "T/C", "setting": "dose: 30.0 mg/kg/injection, schedule: Q01DX005 (ip), vehicle: Klucel (hydroxypropylcellulose) (HPC)", "result": "103 % of control and 107 % of control"}, {"measurement": "T/C", "setting": "dose: 60.0 mg/kg/injection, schedule: Q01DX005 (ip), vehicle: Klucel (hydroxypropylcellulose) (HPC)", "result": "120 % of control"}, {"measurement": "T/C", "setting": "dose: 120.0 mg/kg/injection, schedule: Q01DX005 (ip), vehicle: Klucel (hydroxypropylcellulose) (HPC)", "result": "111 % of control"}]}, {"smiles": "C=NC1C=CCC=C1", "values": [{"measurement": "T/C", "setting": "dose: 100.0 mg/kg/injection, schedule: Q04DX002 (ip), vehicle: saline with Tween-80", "result": "112 % of control"}, {"measurement": "T/C", "setting": "dose: 200.0 mg/kg/injection, schedule: Q04DX002 (ip), vehicle: saline with Tween-80", "result": "91 % of control"}]}, {"smiles": "NC(Cc1cc([N+](=O)[O-])ccc1CN(CCCl)CCCl)C(=O)O", "note": "(stereo not given)", "values": [{"measurement": "T/C", "setting": "dose: 0.06 mg/kg/injection, schedule: Q01DX009 (ip), vehicle: Klucel (hydroxypropylcellulose) (HPC)", "result": "104 % of control"}, {"measurement": "T/C", "setting": "dose: 0.11 mg/kg/injection, schedule: Q04DX003 (ip), vehicle: Klucel (hydroxypropylcellulose) (HPC)", "result": "110 % of control"}, {"measurement": "T/C", "setting": "dose: 0.12 mg/kg/injection, schedule: Q01DX009 (ip), vehicle: Klucel (hydroxypropylcellulose) (HPC)", "result": "120 % of control"}, {"measurement": "T/C", "setting": "dose: 0.23 mg/kg/injection, schedule: Q04DX003 (ip), vehicle: Klucel (hydroxypropylcellulose) (HPC)", "result": "104 % of control"}, {"measurement": "T/C", "setting": "dose: 0.25 mg/kg/injection, schedule: Q01DX009 (ip), vehicle: Klucel (hydroxypropylcellulose) (HPC)", "result": "117 % of control"}, {"measurement": "T/C", "setting": "dose: 0.47 mg/kg/injection, schedule: Q04DX003 (ip), vehicle: Klucel (hydroxypropylcellulose) (HPC)", "result": "120 % of control"}, {"measurement": "T/C", "setting": "dose: 1.88 mg/kg/injection, schedule: Q04DX003 (ip), vehicle: Klucel (hydroxypropylcellulose) (HPC)", "result": "189 % of control"}, {"measurement": "T/C", "setting": "[1]", "result": "105 % of control"}, {"measurement": "T/C", "setting": "dose: 3.75 mg/kg/injection, schedule: Q04DX003 (ip), vehicle: Klucel (hydroxypropylcellulose) (HPC)", "result": "119 % of control"}, {"measurement": "T/C", "setting": "[2]", "result": "93 % of control"}, {"measurement": "T/C", "setting": "dose: 6.25 mg/kg/injection, schedule: Q01DX001 (ip), vehicle: Klucel (hydroxypropylcellulose) (HPC)", "result": "93 % of control"}, {"measurement": "T/C", "setting": "dose: 7.5 mg/kg/injection, schedule: Q04DX003 (ip), vehicle: Klucel (hydroxypropylcellulose) (HPC)", "result": "99 % of control"}, {"measurement": "T/C", "setting": "[3]", "result": "90 % of control"}, {"measurement": "T/C", "setting": "dose: 15.0 mg/kg/injection, schedule: Q04DX003 (ip), vehicle: Klucel (hydroxypropylcellulose) (HPC)", "result": "91 % of control"}, {"measurement": "T/C", "setting": "dose: 25.0 mg/kg/injection, schedule: Q01DX001 (ip), vehicle: Klucel (hydroxypropylcellulose) (HPC)", "result": "90 % of control"}]}, {"smiles": "COC1CCC(Sc2cccc[n+]2CC(C)=O)CC1OC", "note": "(stereo not given)", "values": [{"measurement": "T/C", "setting": "[4]", "result": "100 % of control"}, {"measurement": "T/C", "setting": "dose: 25.0 mg/kg/injection, schedule: Q01DX005 (ip), vehicle: saline with Tween-80", "result": "99 % of control"}, {"measurement": "T/C", "setting": "dose: 50.0 mg/kg/injection, schedule: Q01DX005 (ip), vehicle: saline with Tween-80", "result": "98 % of control and 101 % of control"}, {"measurement": "T/C", "setting": "dose: 100.0 mg/kg/injection, schedule: Q01DX005 (ip), vehicle: saline with Tween-80", "result": "102 % of control"}]}, {"smiles": "CCCCCCCCCCN1CCOCCOCCN(CCCCCCCCCC)CCOCCOCC1", "values": [{"measurement": "T/C", "setting": "dose: 1.56 mg/kg/injection, schedule: Q01DX005 (ip), vehicle: saline with Tween-80", "result": "105 % of control"}, {"measurement": "T/C", "setting": "dose: 3.13 mg/kg/injection, schedule: Q01DX005 (ip), vehicle: saline with Tween-80", "result": "100 % of control"}, {"measurement": "T/C", "setting": "dose: 6.25 mg/kg/injection, schedule: Q01DX005 (ip), vehicle: saline with Tween-80", "result": "107 % of control"}, {"measurement": "T/C", "setting": "[4]", "result": "99 % of control"}]}, {"smiles": "Cc1ccsc1C(=O)c1ccccc1", "values": [{"measurement": "T/C", "setting": "[5]", "result": "99 % of control"}, {"measurement": "T/C", "setting": "[6]", "result": "94 % of control"}, {"measurement": "T/C", "setting": "[7]", "result": "96 % of control"}]}, {"smiles": "O=C(CN1CCOCC1)c1cc2c(c3ccccc13)CCCC2", "values": [{"measurement": "T/C", "setting": "[5]", "result": "94 % of control"}, {"measurement": "T/C", "setting": "[6]", "result": "99 % of control"}, {"measurement": "T/C", "setting": "[7]", "result": "96 % of control"}]}, {"smiles": "CC(=O)N1c2ccccc2C23CCN(C)CC4C(C)OCC(C4CC2=O)C13", "note": "(stereo not given)", "values": [{"measurement": "T/C", "setting": "[1]", "result": "100 % of control"}, {"measurement": "T/C", "setting": "[2]", "result": "95 % of control"}, {"measurement": "T/C", "setting": "[3]", "result": "98 % of control"}, {"measurement": "T/C", "setting": "dose: 16.0 mg/kg/injection, schedule: Q01DX009 (ip), vehicle: Klucel (hydroxypropylcellulose) (HPC)", "result": "100 % of control"}, {"measurement": "T/C", "setting": "dose: 32.0 mg/kg/injection, schedule: Q01DX009 (ip), vehicle: Klucel (hydroxypropylcellulose) (HPC)", "result": "100 % of control"}]}]}
